The record followed here is the supplement of paper PMC11061612.

Holding throughout (test): Bliss excess, mean over the matrix (fraction); higher = more synergy
Experiment [1] relates to OCI-AML2 (Acute Myeloid Leukemia). An outline of the steps:
(§1)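 Bliss excess equals the observed combination effect minus the expected value EA + EB − EA·EB, where EA and EB are the effects of each agent alone. Combination Emax is the second-highest inhibition within the matrix. Inhibition was scaled from CellTiter-Glo 2.0 luminescence, with 0 set by vehicle wells and 1 by blank wells, after 72 hours of two-drug dosing of cells plated in 1536-well plates.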

The subject of experiment [2] is NCI-H2595 (Mesothelioma). An outline of the steps: as §1
In experiment [3] the test system is TGBC24TKB (Biliary Tract Carcinoma). In short, it runs like this:
as §1

The test system of experiment [4] is MDA-MB-157 (Breast Carcinoma). An outline of the steps:
as §1

Experiment [5] relates to CAL-78 (Chondrosarcoma). An outline of the steps:
as §1

The subject of experiment [6] is CFPAC-1 (Pancreatic Carcinoma). An outline of the steps:
as §1

The test system of experiment [7] is SN12C (Kidney Carcinoma). An outline of the steps: as §1
The test system of experiment [8] is SNU-C5 (Colorectal Carcinoma). In short, it runs like this: as §1
Experiment [9] concerns SUIT-2 (Pancreatic Carcinoma). In short, it runs like this:
as §1

Experiment [10] has as its system DMS-273 (Small Cell Lung Carcinoma). An outline of the steps: as §1
Experiment [11] deals with KM-H2 (Hodgkin's Lymphoma). An outline of the steps: as §1
Experiment [12] concerns KARPAS-1106P (B-Cell Non-Hodgkin's Lymphoma). An outline of the steps:
as §1

Experiment [13] has as its system C3A (Hepatocellular Carcinoma). In short, it runs like this: as §1
Experiment [14] deals with TE-5 (Esophageal Squamous Cell Carcinoma). In short, it runs like this: as §1
Experiment [15] relates to DSH1 (Bladder Carcinoma). An outline of the steps:
as §1

For experiment [16], the system named is 697 (B-Lymphoblastic Leukemia). In short, it runs like this:
as §1

The subject of experiment [17] is NCI-H2369 (Mesothelioma). An outline of the steps: as §1
Experiment [18] has as its system ES7 (Ewing's Sarcoma). An outline of the steps: as §1
Experiment [19] concerns SW756 (Cervical Carcinoma). In short, it runs like this:
as §1

For experiment [20], the system named is SK-N-FI (Neuroblastoma). An outline of the steps: as §1

Each structure is given as a SMILES string.

On to `Cc1cc2ncnn2cc1Nc1ncc2c(n1)n(C1CCOCC1)c(=O)n2C` [AZD7648] + O=C(c1cc(Cc2n[nH]c(=O)c3ccccc23)ccc1F)N1CCN(C(=O)C2CC2)CC1 [Olaparib] (first compound max 10 µM, 7x7, partner max 10 µM), for which the Bliss excess was -0.0289 in [1]; -0.0258 in [2]; -0.0128 in experiment [3]; -0.0251 in experiment [4]; -0.0726 in experiment [5]; -0.0567 in experiment [6]. The Bliss excess was -0.0469 in [7]; -0.0064 in [8]; 0.0151 in experiment [9]; 0.0268 in [10]; -0.0127 in experiment [11]; -0.0538 in [12]. For the same compound, the Bliss excess is -0.0505 in experiment [13]; -0.0431 in [14]; 0.0328 in [15]; 0.0076 in experiment [16]; -0.05 in [17]; -0.0569 in [18]. In addition, the Bliss excess was -0.0174 in experiment [19] and -0.0292 in [20].
On to `CS(=O)(=O)CCNCc1ccc(-c2ccc3ncnc(Nc4ccc(OCc5cccc(F)c5)c(Cl)c4)c3c2)o1` [Lapatinib] + C[C@@H](Oc1cc(-c2cnn(C3CCNCC3)c2)cnc1N)c1c(Cl)ccc(F)c1Cl [Crizotinib] (first compound max 10 µM, 7x7, partner max 10 µM), for which the Bliss excess in [1] is -0.0813; in experiment [2], -0.0198; in experiment [3] it was -0.0058; in [4], -0.0086; in [5], -0.072; in [6], -0.077. The Bliss excess in experiment [7] was -0.017; in experiment [8], -0.0301; in experiment [9], 0.0051; in [10], 0.0146; in experiment [11], 0.0018; in [12], -0.0483. The Bliss excess was -0.0963 in [13]; -0.0054 in [14]; 0.0668 in experiment [15]; 0.0166 in experiment [16]; -0.0253 in experiment [17]; -0.0214 in experiment [18]. The Bliss excess is -0.0138 in [19] and -0.0365 in [20].
In the case of `CN(CCO)CC[C@H](CSc1ccccc1)Nc1ccc(S(=O)(=O)NC(=O)c2ccc(N3CCC([C@@H](O)c4ccccc4-c4ccc(Cl)cc4)CC3)cc2)cc1S(=O)(=O)C(F)(F)F` [AZD4320] + Cn1cnc2c(F)c(Nc3ccc(Br)cc3Cl)c(C(=O)NOCCO)cc21 [Selumetinib] (first compound max 1 µM, 7x7, partner max 3 µM), the Bliss excess in [1] was 0.0207; in experiment [2] it was 0.04; in [3] it was 0.0369; in experiment [4] it was 0.0259; in experiment [5] it was -0.0388; in experiment [6], 0.0453. The Bliss excess in [7] is -0.0015; in experiment [8], 0.0837; in [9], 0.0126; in experiment [10], -0.0768; in experiment [11], 0.0106; in experiment [12], -0.0007. Further, the Bliss excess in [13] is 0.141; in [14], 0.0377; in experiment [15] it was -0.0405; in [16], 0.0943; in [17], 0.0216; in experiment [18], 0.026. For the same compound, the Bliss excess was 0.0022 in experiment [19] and 0.0296 in experiment [20].
With `COc1cccc(OCCCN)c1-c1cc(Nc2cnc(C#N)cn2)n[nH]1` [Prexasertib] + CCc1c2c(nc3ccc(O)cc13)-c1cc3c(c(=O)n1C2)COC(=O)[C@]3(O)CC [SN-38] (first compound max 1 µM, 7x7, partner max 0.3 µM), the Bliss excess in experiment [1] was -0.0094; in [2] it was 0.0211; in [3] it was 0.0191; in experiment [4], 0.0027; in experiment [5], -0.0348; in experiment [6] it was -0.107. The Bliss excess in [7] is -0.0237; in experiment [8] it was -0.0375; in experiment [9] it was -0.0582; in [10], 0.0356; in [11], -0.0411; in experiment [12] it was -0.124. The Bliss excess was -0.112 in experiment [13]; -0.0476 in experiment [14]; 0.0128 in [15]; 0.0017 in experiment [16]; 0.0148 in [17]; -0.012 in experiment [18]. Moreover, the figures for the Bliss excess in experiment [19] and in experiment [20] were -0.0542 and 0.0093, respectively.
For `CCc1c2c(nc3ccc(O)cc13)-c1cc3c(c(=O)n1C2)COC(=O)[C@]3(O)CC` [SN-38] + CN(C)CCCOc1ccc(-c2ccc3ncc4c(c3c2)n(C2CCOCC2)c(=O)n4C)cn1 [AZD0156] (first compound max 0.3 µM, 7x7, partner max 1 µM), the Bliss excess was 0.0764 in [1]; -0.0399 in [2]; 0.0476 in [3]; 0.0653 in [4]; -0.0547 in experiment [5]; -0.0436 in experiment [6]. The Bliss excess in [7] was 0.011; in experiment [8], 0.036; in [9], 0.0446; in experiment [10], 0.0377; in [11] it was 0.0794; in [12], -0.0346. The Bliss excess in experiment [13] was -0.0646; in [14], 0.0124; in experiment [15] it was -0.0382; in experiment [16] it was 0.0689; in experiment [17], -0.0001; in experiment [18] it was 0.0565. Further, the figures for the Bliss excess in experiment [19] and in [20] were -0.0273 and 0.0628, respectively.
For `CC1(C)CCC(CN2CCN(c3ccc(C(=O)NS(=O)(=O)c4ccc(NCC5CCOCC5)c([N+](=O)[O-])c4)c(Oc4cnc5[nH]ccc5c4)c3)CC2)=C(c2ccc(Cl)cc2)C1` [Venetoclax] + C=CCn1c(=O)c2cnc(Nc3ccc(N4CCN(C)CC4)cc3)nc2n1-c1cccc(C(C)(C)O)n1 [AZD1775] (first compound max 1 µM, partner max 1 µM), the Bliss excess was 0.0028 in experiment [1]; -0.0316 in experiment [2]; -0.0108 in experiment [3]; 0.0679 in experiment [4]; -0.0817 in experiment [5]; -0.0185 in experiment [6]. Besides, the Bliss excess in experiment [7] was 0; in [8], -0.0339; in experiment [9], -0.0295; in experiment [10], -0.0711; in [11], 0.02; in [12], 0.0627. Besides, the Bliss excess in [13] was -0.0511; in [14], -0.0412; in experiment [15] it was -0.0476; in [16] it was 0.0509; in experiment [17], -0.0134; in experiment [18], 0.119. Besides, the Bliss excess in experiment [19] is -0.0401; in [20], -0.0076.
In the case of `CC1(C)CCC(CN2CCN(c3ccc(C(=O)NS(=O)(=O)c4ccc(NCC5CCOCC5)c([N+](=O)[O-])c4)c(Oc4cnc5[nH]ccc5c4)c3)CC2)=C(c2ccc(Cl)cc2)C1` [Venetoclax] + COc1cc(Nc2ncc3c(n2)-c2ccc(Cl)cc2C(c2c(F)cccc2OC)=NC3)ccc1C(=O)O [Alisertib] (first compound max 1 µM, 7x7, partner max 10 µM), the Bliss excess in experiment [1] was 0.0826; in experiment [2], -0.0543; in experiment [3] it was 0.0487; in experiment [4], 0.014; in experiment [5], -0.0353; in [6] it was -0.0475. The Bliss excess was -0.0985 in experiment [7]; -0.0682 in experiment [8]; -0.0515 in [9]; 0.0086 in [10]; 0.145 in experiment [11]; 0.103 in experiment [12]. The Bliss excess is -0.0617 in [13]; -0.105 in experiment [14]; 0.128 in experiment [15]; 0.0193 in experiment [16]; -0.0739 in experiment [17]; 0.0686 in [18]. For the same compound, the figures for the Bliss excess in [19] and in experiment [20] were -0.0426 and 0.0916, respectively.
